Patent publication US7041678B2 (priority 1999, dated 2006)
Entries after “also recorded” stand apart in the source; their conditions may differ.

How the values were obtained:
nor-1 promoter [1] = format: cell-based, Aspergillus parasiticus
nor-1 promoter [2] = format: cell-based, Aspergillus parasiticus; remark: listed apart in the source
aflatoxin biosynthesis = format: cell-based, Aspergillus parasiticus SU-1
nor-1 gene = format: cell-based, Aspergillus parasiticus SU-1
ipnA promoter = format: cell-based, Aspergillus nidulans
tri5 promoter = format: cell-based, Gibberella zeae
ver-1 promoter = experiment: Transcription from the ver-1 promoter; format: cell-based, Aspergillus parasiticus

For `CCCCC/C=C/CCCCCC/C=C/C=C/C(=O)N1CCCCC1` [Cp2], the “Transcription from the nor-1 promoter” value (nor-1 promoter [1]) was “inhibit transcription”, the “Fungus growth on TLC plates” value (nor-1 promoter [2]) was “Fungal growth was seen; also recorded: did not inhibit fungus growth” and the “Inhibition of GUS in TLC bioassay” value (nor-1 promoter [2]) was “inhibitory properties”. The “Concentration that appeared to completely inhibit biosynthesis of aflatoxin” value (aflatoxin biosynthesis) was “greater than 26 μg/ml”, the “Amounts of aflatoxins B1 and G1” value (aflatoxin biosynthesis; 2.6-78 μg/ml, 48 hours) was “reduction” and the “Transcription of the nor-1 gene” value (nor-1 gene) was “inhibits”. The “nor-1 transcription at lower concentrations” value (nor-1 gene) was “did not completely inhibit”, the “Transcription from the ipnA promoter (GUS)” value (ipnA promoter) was “inhibit transcription; also recorded: inhibited” and the “Transcription from the tri5 promoter (GUS)” value (tri5 promoter) was “inhibit transcription; also recorded: inhibited”. For the same compound, the “Transcription from the ver-1 promoter” value (ver-1 promoter) was “inhibit transcription”.
